Measurements published in BigSolDB 2.1.

Settings: in water

O=C([O-])c1cccc(S(=O)(=O)O)c1.[Na+]
Settings | solubility (mole fraction)
278.15 K | 0.0276
283.15 K | 0.0296
288.15 K | 0.032
293.15 K | 0.0346
298.15 K | 0.0372
303.15 K | 0.0417
308.15 K | 0.0459
313.15 K | 0.0519
318.15 K | 0.0584
323.15 K | 0.0687
